# Experimental data as given in PubChem BioAssay AID1963829 (Molecular Pharmacology Branch, DTP, NCI, 2024).
# Test system: 935938-334-R-J1-PDC complex spheroid viability
# Assay: Anticancer human tumor 935938-334-R-J1-PDC patient-derived small intestine adenocarcinoma cell line growth inhibition [POLQ]
# Conditions: second compound 0.316 µM; first compound 3.16 µM; active compounds read low
# Protocol: Multicellular complex tumor spheroid response to Polymerase (POL) inhibitors (novobiocin, ART-558, RP6685) in combination with a variety of drugs and investigational agents in selected tumor cell lines
# The POL inhibitors (novobiocin, ART-558, and RP6685) were evaluated both individually and in combination with standard of care and investigational anticancer small molecules within a complex spheroid model of solid tumors. . Complex spheroids include a stromal component modeled by human endothelial cells (HUVEC) and fibroblasts modeled by human mesenchymal stem cells (MSCs). The concentration ranges selected for each drug and investigational agent were based upon clinically achievable concentrations if the clinical Cmax of the agent was known.
# Compounds. The drugs and investigational agents: novobiocin (NSC847541), ART-558 (NSC835418), RP-6685 (NSC848927), peposertib (NSC802822), ceralasertib (NSC780249), elimusertib (NSC800525), camonsertib (NSC841442), AZD-1390 (NSC803789), olaparib (NSC753686), talazoparib (NSC767125), rucaparib (NSC756644), sotorasib (NSC818433), MRTX-1133 (NSC836407), SN-38 (NSC673596), topotecan (NSC609699), epotoside (NSC141540), doxorubicin (NSC123127), gemcitabine (NSC613327), 5-fluorouracil (NSC19893), paclitaxel (NSC125973), vemurafenib (NSC761431), MSA-2 (NSC828583), SN-011 (NSC837082), adavosertib (NSC754352), prexasertib (NSC758257), carboplatin (NSC241240) and oxaliplatin (NSC266046), were obtained from the National Cancer Institute (NCI) Developmental Therapeutics Program Chemical Repository (21). The FDA-approved anticancer drug set is available from the Developmental Therapeutics Program at https://dtp.cancer.gov/organization/dscb/obtaining/. […] The stock solutions were prepared in dimethyl sulfoxide (DMSO, Sigma-Aldrich, St. Louis, MO, cat. D2650), except for the platinum compounds which were prepared in saline (Quality Biological, Gaithersburg, MD, cat. 114-055-101), at 800-fold the tested concentration and stored at -70 degrees C prior to their use. All drugs and investigational agents were tested over a range starting from a high concentration at or near the clinical Cmax and decreasing in half-log increments. If the clinical Cmax for an agent had not been determined, the highest concentration tested was 10 microM, except for SN-38, which was tested at a high concentration of 1 microM.
# Cell Culture. All cells were maintained in an incubator at 37 degrees C and 5% CO2 with 95% humidity. The PDC lines were cultured according to standard operating procedures established by the NCI PDMR (https://pdmr.cancer.gov). Table 3 of the manuscript, lists the cell lines along with the number of the three cell types plated to form the mct-spheroids and media for tumor cell growth. After thawing, all PDC lines, except 997537-175-T-J1-PDC and 415267-285-R-J2-PDC, were cultured in Matrigel-coated flasks prepared with a working solution of 1X Ham's F-12 nutrient mix, without supplementation (Thermo Fisher Scientific, cat. 11765054), 100 U/mL penicillin-streptomycin (Thermo Fisher Scientific, cat. 15140122), and 2.5% Matrigel (Corning Inc., Corning, NY, cat. 354248) for the first three passages. The two PDC lines 997537-175-T-J1-PDC and 415267-285-R-J2-PDC were cultured on uncoated flasks. The 857933-349-R-J2-PDC line was cultured in 6C/Colon 1B media containing advanced DMEM/F-12 (Thermo Fisher Scientific, cat. 12634028), 10 mM HEPES (Thermo Fisher Scientific, cat. 15630080), 1X GlutaMAX supplement (Thermo Fisher Scientific, cat. 35050061), 0.1 mg/mL primocin (InvivoGen, San Diego, CA, cat. ant-pm-2), 10% defined fetal bovine serum, heat inactivated (HyClone Laboratories Inc., Logan, UT, cat. SH30070.03HI), 50% L-WRN conditioned media (ATCC, cat. CRL-3276), 1.25 mM N-Acetyl-L-cysteine (Sigma-Aldrich, cat. A9165), 10 mM nicotinamide (Sigma-Aldrich, cat. N0636), 1X B-27 supplement (Thermo Fisher Scientific, cat. 17504044), 1X N-2 supplement (Thermo Fisher Scientific, cat. […]
# 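Further: spheroids exposed to drugs for seven days before viability read; 100% = DMSO vehicle control wells.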
row,Structure (SMILES),"viability, T/C [%]"
1,COc1cccc2c1C(=O)c1c(O)c3c(c(O)c1C2=O)CC(O)(C(=O)CO)CC3OC1CC(N)C(O)C(C)O1 (stereo not given) + Nc1ccc(C#CCN(C(=O)Cc2ncc(C(F)(F)F)cc2C(F)(F)F)c2ccc(F)cc2)nn1,8.73
2,O=c1[nH]cc(F)c(=O)[nH]1 + Nc1ccc(C#CCN(C(=O)Cc2ncc(C(F)(F)F)cc2C(F)(F)F)c2ccc(F)cc2)nn1,55.8

# Same assay, conditions: second compound 0.316 µM; first compound 10 µM; active compounds read low
row,Structure (SMILES),"viability, T/C [%]"
1,CC1COCCN1c1cc(-c2ccnn2C)c2ccnc(-c3ccn[nH]3)c2n1 (stereo not given) + Cc1cccc(N(C)C(=O)C2C(O)CCN2c2nc(C)cc(C(F)(F)F)c2C#N)c1,20.8
2,COc1cccc2c1C(=O)c1c(O)c3c(c(O)c1C2=O)CC(O)(C(=O)CO)CC3OC1CC(N)C(O)C(C)O1 (stereo not given) + Nc1ccc(C#CCN(C(=O)Cc2ncc(C(F)(F)F)cc2C(F)(F)F)c2ccc(F)cc2)nn1,3.32
3,O=c1[nH]cc(F)c(=O)[nH]1 + Nc1ccc(C#CCN(C(=O)Cc2ncc(C(F)(F)F)cc2C(F)(F)F)c2ccc(F)cc2)nn1,56.5

# Same assay, conditions: second compound 1 µM; first compound 0.0316 µM; active compounds read low
row,Structure (SMILES),"viability, T/C [%]"
1,CC1COCCN1c1cc(-c2ccnn2C)c2ccnc(-c3ccn[nH]3)c2n1 (stereo not given) + Cc1cccc(N(C)C(=O)C2C(O)CCN2c2nc(C)cc(C(F)(F)F)c2C#N)c1,90.2
2,COc1cccc2c1C(=O)c1c(O)c3c(c(O)c1C2=O)CC(O)(C(=O)CO)CC3OC1CC(N)C(O)C(C)O1 (stereo not given) + Nc1ccc(C#CCN(C(=O)Cc2ncc(C(F)(F)F)cc2C(F)(F)F)c2ccc(F)cc2)nn1,58.9
3,O=c1[nH]cc(F)c(=O)[nH]1 + Nc1ccc(C#CCN(C(=O)Cc2ncc(C(F)(F)F)cc2C(F)(F)F)c2ccc(F)cc2)nn1,103

# Same assay, conditions: second compound 1 µM; first compound 0.1 µM; active compounds read low
row,Structure (SMILES),"viability, T/C [%]"
1,CC1COCCN1c1cc(-c2ccnn2C)c2ccnc(-c3ccn[nH]3)c2n1 (stereo not given) + Cc1cccc(N(C)C(=O)C2C(O)CCN2c2nc(C)cc(C(F)(F)F)c2C#N)c1,54.9
2,COc1cccc2c1C(=O)c1c(O)c3c(c(O)c1C2=O)CC(O)(C(=O)CO)CC3OC1CC(N)C(O)C(C)O1 (stereo not given) + Nc1ccc(C#CCN(C(=O)Cc2ncc(C(F)(F)F)cc2C(F)(F)F)c2ccc(F)cc2)nn1,38.8
3,O=c1[nH]cc(F)c(=O)[nH]1 + Nc1ccc(C#CCN(C(=O)Cc2ncc(C(F)(F)F)cc2C(F)(F)F)c2ccc(F)cc2)nn1,79.7

# Same assay, conditions: second compound 1 µM; first compound 0.316 µM; active compounds read low
row,Structure (SMILES),"viability, T/C [%]"
1,CC1COCCN1c1cc(-c2ccnn2C)c2ccnc(-c3ccn[nH]3)c2n1 (stereo not given) + Cc1cccc(N(C)C(=O)C2C(O)CCN2c2nc(C)cc(C(F)(F)F)c2C#N)c1,29.8
2,COc1cccc2c1C(=O)c1c(O)c3c(c(O)c1C2=O)CC(O)(C(=O)CO)CC3OC1CC(N)C(O)C(C)O1 (stereo not given) + Nc1ccc(C#CCN(C(=O)Cc2ncc(C(F)(F)F)cc2C(F)(F)F)c2ccc(F)cc2)nn1,30.3
3,O=c1[nH]cc(F)c(=O)[nH]1 + Nc1ccc(C#CCN(C(=O)Cc2ncc(C(F)(F)F)cc2C(F)(F)F)c2ccc(F)cc2)nn1,104

# Same assay, conditions: second compound 1 µM; first compound 1 µM; active compounds read low
row,Structure (SMILES),"viability, T/C [%]"
1,CC1COCCN1c1cc(-c2ccnn2C)c2ccnc(-c3ccn[nH]3)c2n1 (stereo not given) + Cc1cccc(N(C)C(=O)C2C(O)CCN2c2nc(C)cc(C(F)(F)F)c2C#N)c1,16.4
2,COc1cccc2c1C(=O)c1c(O)c3c(c(O)c1C2=O)CC(O)(C(=O)CO)CC3OC1CC(N)C(O)C(C)O1 (stereo not given) + Nc1ccc(C#CCN(C(=O)Cc2ncc(C(F)(F)F)cc2C(F)(F)F)c2ccc(F)cc2)nn1,18.8
3,O=c1[nH]cc(F)c(=O)[nH]1 + Nc1ccc(C#CCN(C(=O)Cc2ncc(C(F)(F)F)cc2C(F)(F)F)c2ccc(F)cc2)nn1,68.9

# Same assay, conditions: second compound 1 µM; first compound 3.16 µM; active compounds read low
row,Structure (SMILES),"viability, T/C [%]"
1,CC1COCCN1c1cc(-c2ccnn2C)c2ccnc(-c3ccn[nH]3)c2n1 (stereo not given) + Cc1cccc(N(C)C(=O)C2C(O)CCN2c2nc(C)cc(C(F)(F)F)c2C#N)c1,21.9
2,COc1cccc2c1C(=O)c1c(O)c3c(c(O)c1C2=O)CC(O)(C(=O)CO)CC3OC1CC(N)C(O)C(C)O1 (stereo not given) + Nc1ccc(C#CCN(C(=O)Cc2ncc(C(F)(F)F)cc2C(F)(F)F)c2ccc(F)cc2)nn1,9.11
3,O=c1[nH]cc(F)c(=O)[nH]1 + Nc1ccc(C#CCN(C(=O)Cc2ncc(C(F)(F)F)cc2C(F)(F)F)c2ccc(F)cc2)nn1,55
